Legend:
Assay type in all cases: cell-based
S.epidermidis [1] = test: Qualitative examination: enrichment of the inoculated test preparation in broth
Source text: (§1) Escherichia (E.coli) Staphylococcus (S.aureus) Streptococcus (Sc.) Pneumoniae Pseudomonas (P.aeruginosa) Staphylococcus (S. epidermidis) Haemophilus (H. influenzae)
(§2) Die verschiedenen Testkeime wurde jeweils aus einem Lyophilisat in NaCl-Peptonpuffer homogenisiert und auf Caseinpepton-Sojymehlpepton. (Caso-) Agar (Fa. bioMérieux; Art. Nr. 43019) bez. Kochblut-Agar (Fa. bioMérieux; Art. Nr. 43109) subkultiviert. Die Teststämme wurden vor Versuchsbeginn durch Erstellen eines biochemischen Profils mittels ATB/Vitek-System (Fa. bioMérieux, Nürtingen) auf Reinheit und Identität überprüft.
(§3) Die verschiedenen Testsubstanzen a. bis j. wurden jeweils zu 5 ml in sterile Zentrifugenröhrchen abgefüllt und mit ca. 10^5 KBE^*/ml (* = koloniebildende Einheiten) der oben genannten Testkeime kontaminiert. Pro Substanz wurde für jeden Testkeim und jede zu prüfende Testzeit ein separater Ansatz angeimpft, d.h.10 Testsubstanzen zu jeweils 7 Testzeiten und 6 Testkeime (= insgesamt 502 Testansätze). […] Der Überstand wurde dekantiert und das Pellet in 5 ml NaCl Peptonpuffer aufgenommen und resuspendiert. Die Suspension wurde erneut 10 Minuten bei 3000 rpm abzentrifugiert und 5 ml NaCl-Peptonpuffer aufgenommen und mittels Vortex homogenisiert.
(§4) Jeweils 2 ml der Testansätze wurden in 20 ml Caso-Bouillon oder für H. influenzae, in Fildes-Medium der Firma Becton Dickinson, ARt. Nr. 0349-739, angereichert und ebenfalls maximal 4 Tage bei 33± 2°C bebrütet. Ein negatives Ergebnis der Anreicherung belegt die Elimination der inokulierten Keime.

S.aureus [2] = test: as above
Source text: as §1, §2, §3, §4

E.coli [3] = test: as above
Source text: as §1, §2, §3, §4

Sc. pneumoniae [4] = test: as above
Source text: as §1, §2, §3, §4

H.influenzae [5] = test: as above
Source text: as §1, §2
(§5) Die verschiedenen Testsubstanzen a. bis j. wurden jeweils zu 5 ml in sterile Zentrifugenröhrchen abgefüllt und mit ca. 10^5 KBE^*/ml (* = koloniebildende Einheiten) der oben genannten Testkeime kontaminiert. Pro Substanz wurde für jeden Testkeim und jede zu prüfende Testzeit ein separater Ansatz angeimpft, d.h.10 Testsubstanzen zu jeweils 7 Testzeiten und 6 Testkeime (= insgesamt 502 Testansätze). Nach 2, 6, 8, 24, 32, 48 und 72 Stunden wurde dann der jeweilige Testansatz 10 Minuten bei 3000 rpm abzentrifugiert. Der Überstand wurde dekantiert und das Pellet in 5 ml NaCl Peptonpuffer aufgenommen und resuspendiert. Die Suspension wurde erneut 10 Minuten bei 3000 rpm abzentrifugiert und 5 ml NaCl-Peptonpuffer aufgenommen und mittels Vortex homogenisiert.
as §4

P.aeruginosa = test: as above
Source text: as §1, §2, §5, §4

S.aureus [6] = test: Quantitative germ count (re-isolation, surface method) after inoculating the test preparation; settings: Ausgangskeimzahl 2,6 x 10^5 KBE/ml
Source text: as §1, §2
(§6) Die Ausgangskeimzahl wurde im Oberflächenverfahren mit Hilfe eines Spiralplaters (Fa. Meintrup, Lähden) ermittelt und ist im einzelnen den Tabellen 1-12 zu entnehmen.
as §3
(§7) Die anschließende Keimzahlbestimmung erfolgte im Oberflächenverfahren durch Ausspiralisieren eines […] Aliquots auf Caso-Agar bzw. für H. influenzae auf Kochblut-Agar. Die Platten wurden bei 33±2°C für max. 4 Tage bebrütet. Die Nachweisgrenze des Verfahrens liegt bei 100 KBE/ml.

E.coli [7] = test: as above; settings: Ausgangskeimzahl 2,7 x 10^5 KBE/ml
Source text: as §1, §2, §6, §3, §7

H.influenzae [8] = test: as above; settings: Ausgangskeimzahl 2,8 x 10^5 KBE/ml
Source text: as §1, §2, §6, §3, §7

Sc. pneumoniae [9] = test: as above; settings: Ausgangskeimzahl 3,7 x 10^5 KBE/ml
Source text: as §1, §2, §6, §3, §7

S.epidermidis [10] = test: as above; settings: Ausgangskeimzahl 2,1 x 10^5 KBE/ml
Source text: as §1, §2, §6, §5, §7

Substance: Benzalkoniumchlorid [Benzalkoniumchlorid 0,001 Gew.-%]
- Ergebnis der Reisolierung qualitiativ (+/-) nach Anreicherung (S.epidermidis [1]; 2 h after inoculation): -
- Ergebnis der Reisolierung qualitiativ (+/-) nach Anreicherung (S.epidermidis [1]; 4 h after inoculation): -
- Ergebnis der Reisolierung qualitiativ (+/-) nach Anreicherung (S.epidermidis [1]; 6 h after inoculation): -
- Ergebnis der Reisolierung qualitiativ (+/-) nach Anreicherung (S.epidermidis [1]; 8 h after inoculation): -
- Ergebnis der Reisolierung qualitiativ (+/-) nach Anreicherung (S.epidermidis [1]; 24 h after inoculation): -
- Ergebnis der Reisolierung qualitiativ (+/-) nach Anreicherung (S.epidermidis [1]; 32 h after inoculation): -
- Ergebnis der Reisolierung qualitiativ (+/-) nach Anreicherung (S.epidermidis [1]; 48 h after inoculation): -
- Ergebnis der Reisolierung qualitiativ (+/-) nach Anreicherung (S.epidermidis [1]; 72 h after inoculation): -
- Ergebnis der Reisolierung qualitiativ (+/-) nach Anreicherung (S.aureus [2]; 2 h after inoculation): -
- Ergebnis der Reisolierung qualitiativ (+/-) nach Anreicherung (S.aureus [2]; 4 h after inoculation): -
- Ergebnis der Reisolierung qualitiativ (+/-) nach Anreicherung (S.aureus [2]; 6 h after inoculation): -
- Ergebnis der Reisolierung qualitiativ (+/-) nach Anreicherung (S.aureus [2]; 8 h after inoculation): -
- Ergebnis der Reisolierung qualitiativ (+/-) nach Anreicherung (S.aureus [2]; 24 h after inoculation): -
- Ergebnis der Reisolierung qualitiativ (+/-) nach Anreicherung (S.aureus [2]; 32 h after inoculation): -
- Ergebnis der Reisolierung qualitiativ (+/-) nach Anreicherung (S.aureus [2]; 48 h after inoculation): -
- Ergebnis der Reisolierung qualitiativ (+/-) nach Anreicherung (S.aureus [2]; 72 h after inoculation): -
- Ergebnis der Reisolierung qualitiativ (+/-) nach Anreicherung (E.coli [3]; 2 h after inoculation): -
- Ergebnis der Reisolierung qualitiativ (+/-) nach Anreicherung (E.coli [3]; 4 h after inoculation): -
- Ergebnis der Reisolierung qualitiativ (+/-) nach Anreicherung (E.coli [3]; 6 h after inoculation): -
- Ergebnis der Reisolierung qualitiativ (+/-) nach Anreicherung (E.coli [3]; 8 h after inoculation): -
- Ergebnis der Reisolierung qualitiativ (+/-) nach Anreicherung (E.coli [3]; 24 h after inoculation): -
- Ergebnis der Reisolierung qualitiativ (+/-) nach Anreicherung (E.coli [3]; 32 h after inoculation): -
- Ergebnis der Reisolierung qualitiativ (+/-) nach Anreicherung (E.coli [3]; 48 h after inoculation): -
- Ergebnis der Reisolierung qualitiativ (+/-) nach Anreicherung (E.coli [3]; 72 h after inoculation): -
- Ergebnis der Reisolierung qualitiativ (+/-) nach Anreicherung (Sc. pneumoniae [4]; 2 h after inoculation): -
- Ergebnis der Reisolierung qualitiativ (+/-) nach Anreicherung (Sc. pneumoniae [4]; 4 h after inoculation): -
- Ergebnis der Reisolierung qualitiativ (+/-) nach Anreicherung (Sc. pneumoniae [4]; 6 h after inoculation): -
- Ergebnis der Reisolierung qualitiativ (+/-) nach Anreicherung (Sc. pneumoniae [4]; 8 h after inoculation): -
- Ergebnis der Reisolierung qualitiativ (+/-) nach Anreicherung (Sc. pneumoniae [4]; 24 h after inoculation): -
- Ergebnis der Reisolierung qualitiativ (+/-) nach Anreicherung (Sc. pneumoniae [4]; 32 h after inoculation): -
- Ergebnis der Reisolierung qualitiativ (+/-) nach Anreicherung (Sc. pneumoniae [4]; 48 h after inoculation): -
- Ergebnis der Reisolierung qualitiativ (+/-) nach Anreicherung (Sc. pneumoniae [4]; 72 h after inoculation): -
- Ergebnis der Reisolierung qualitiativ (+/-) nach Anreicherung (H.influenzae [5]; 2 h after inoculation): -
- Ergebnis der Reisolierung qualitiativ (+/-) nach Anreicherung (H.influenzae [5]; 4 h after inoculation): -
- Ergebnis der Reisolierung qualitiativ (+/-) nach Anreicherung (H.influenzae [5]; 6 h after inoculation): -
- Ergebnis der Reisolierung qualitiativ (+/-) nach Anreicherung (H.influenzae [5]; 8 h after inoculation): -
- Ergebnis der Reisolierung qualitiativ (+/-) nach Anreicherung (H.influenzae [5]; 24 h after inoculation): -
- Ergebnis der Reisolierung qualitiativ (+/-) nach Anreicherung (H.influenzae [5]; 32 h after inoculation): -
- Ergebnis der Reisolierung qualitiativ (+/-) nach Anreicherung (H.influenzae [5]; 48 h after inoculation): -
- Ergebnis der Reisolierung qualitiativ (+/-) nach Anreicherung (H.influenzae [5]; 72 h after inoculation): -
- Ergebnis der Reisolierung qualitiativ (+/-) nach Anreicherung (P.aeruginosa; 2 h after inoculation): -
- Ergebnis der Reisolierung qualitiativ (+/-) nach Anreicherung (P.aeruginosa; 4 h after inoculation): -
- Ergebnis der Reisolierung qualitiativ (+/-) nach Anreicherung (P.aeruginosa; 6 h after inoculation): -
- Ergebnis der Reisolierung qualitiativ (+/-) nach Anreicherung (P.aeruginosa; 8 h after inoculation): -
- Ergebnis der Reisolierung qualitiativ (+/-) nach Anreicherung (P.aeruginosa; 24 h after inoculation): -
- Ergebnis der Reisolierung qualitiativ (+/-) nach Anreicherung (P.aeruginosa; 32 h after inoculation): -
- Ergebnis der Reisolierung qualitiativ (+/-) nach Anreicherung (P.aeruginosa; 48 h after inoculation): -
- Ergebnis der Reisolierung qualitiativ (+/-) nach Anreicherung (P.aeruginosa; 72 h after inoculation): -
- Ergebnis der Reisolierung (in KBE/ml) (S.aureus [6]; 2 h after inoculation): <100 KBE/ml
- Ergebnis der Reisolierung (in KBE/ml) (S.aureus [6]; 4 h after inoculation): <100 KBE/ml
- Ergebnis der Reisolierung (in KBE/ml) (S.aureus [6]; 6 h after inoculation): <100 KBE/ml
- Ergebnis der Reisolierung (in KBE/ml) (S.aureus [6]; 8 h after inoculation): <100 KBE/ml
- Ergebnis der Reisolierung (in KBE/ml) (S.aureus [6]; 24 h after inoculation): <100 KBE/ml
- Ergebnis der Reisolierung (in KBE/ml) (S.aureus [6]; 32 h after inoculation): <100 KBE/ml
- Ergebnis der Reisolierung (in KBE/ml) (S.aureus [6]; 48 h after inoculation): <100 KBE/ml
- Ergebnis der Reisolierung (in KBE/ml) (S.aureus [6]; 72 h after inoculation): <100 KBE/ml
- Ergebnis der Reisolierung (in KBE/ml) (E.coli [7]; 2 h after inoculation): <100 KBE/ml
- Ergebnis der Reisolierung (in KBE/ml) (E.coli [7]; 4 h after inoculation): <100 KBE/ml
- Ergebnis der Reisolierung (in KBE/ml) (E.coli [7]; 6 h after inoculation): <100 KBE/ml
- Ergebnis der Reisolierung (in KBE/ml) (E.coli [7]; 8 h after inoculation): <100 KBE/ml
- Ergebnis der Reisolierung (in KBE/ml) (E.coli [7]; 24 h after inoculation): <100 KBE/ml
- Ergebnis der Reisolierung (in KBE/ml) (E.coli [7]; 32 h after inoculation): <100 KBE/ml
- Ergebnis der Reisolierung (in KBE/ml) (E.coli [7]; 48 h after inoculation): <100 KBE/ml
- Ergebnis der Reisolierung (in KBE/ml) (E.coli [7]; 72 h after inoculation): <100 KBE/ml
- Ergebnis der Reisolierung (in KBE/ml) (H.influenzae [8]; 2 h after inoculation): <100 KBE/ml
- Ergebnis der Reisolierung (in KBE/ml) (H.influenzae [8]; 4 h after inoculation): <100 KBE/ml
- Ergebnis der Reisolierung (in KBE/ml) (H.influenzae [8]; 6 h after inoculation): <100 KBE/ml
- Ergebnis der Reisolierung (in KBE/ml) (H.influenzae [8]; 8 h after inoculation): <100 KBE/ml
- Ergebnis der Reisolierung (in KBE/ml) (H.influenzae [8]; 24 h after inoculation): <100 KBE/ml
- Ergebnis der Reisolierung (in KBE/ml) (H.influenzae [8]; 32 h after inoculation): <100 KBE/ml
- Ergebnis der Reisolierung (in KBE/ml) (H.influenzae [8]; 48 h after inoculation): <100 KBE/ml
- Ergebnis der Reisolierung (in KBE/ml) (H.influenzae [8]; 72 h after inoculation): <100 KBE/ml
- Ergebnis der Reisolierung (in KBE/ml) (Sc. pneumoniae [9]; 2 h after inoculation): <100 KBE/ml
- Ergebnis der Reisolierung (in KBE/ml) (Sc. pneumoniae [9]; 4 h after inoculation): <100 KBE/ml
- Ergebnis der Reisolierung (in KBE/ml) (Sc. pneumoniae [9]; 6 h after inoculation): <100 KBE/ml
- Ergebnis der Reisolierung (in KBE/ml) (Sc. pneumoniae [9]; 8 h after inoculation): <100 KBE/ml
- Ergebnis der Reisolierung (in KBE/ml) (Sc. pneumoniae [9]; 24 h after inoculation): <100 KBE/ml
- Ergebnis der Reisolierung (in KBE/ml) (Sc. pneumoniae [9]; 32 h after inoculation): <100 KBE/ml
- Ergebnis der Reisolierung (in KBE/ml) (Sc. pneumoniae [9]; 48 h after inoculation): <100 KBE/ml
- Ergebnis der Reisolierung (in KBE/ml) (Sc. pneumoniae [9]; 72 h after inoculation): <100 KBE/ml
- Ergebnis der Reisolierung (in KBE/ml) (S.epidermidis [10]; 2 h after inoculation): <100 KBE/ml
- Ergebnis der Reisolierung (in KBE/ml) (S.epidermidis [10]; 4 h after inoculation): <100 KBE/ml
- Ergebnis der Reisolierung (in KBE/ml) (S.epidermidis [10]; 6 h after inoculation): <100 KBE/ml
- Ergebnis der Reisolierung (in KBE/ml) (S.epidermidis [10]; 8 h after inoculation): <100 KBE/ml
- Ergebnis der Reisolierung (in KBE/ml) (S.epidermidis [10]; 24 h after inoculation): <100 KBE/ml
- Ergebnis der Reisolierung (in KBE/ml) (S.epidermidis [10]; 32 h after inoculation): <100 KBE/ml
- Ergebnis der Reisolierung (in KBE/ml) (S.epidermidis [10]; 48 h after inoculation): <100 KBE/ml
- Ergebnis der Reisolierung (in KBE/ml) (S.epidermidis [10]; 72 h after inoculation): <100 KBE/ml

Reference: patent publication EP1171107B1, “USE OF A PHARMACEUTICAL COMPOSITION IN THE MANUFACTURE OF A MEDICAMENT FOR THE TREATMENT OF PATHOLOGICAL CONDITIONS OF THE EYE CAUSED BY BACTERIA, VIRUSES, FUNGI, YEASTS AND PROTOZOA” (Dr. GERHARD MANN chem.-pharm. Fabrik GmbH, priority 1999, dated 2000)
